As a reminder, the IC50 is the concentration that gives 50% inhibition. A word on the melting point: it is the temperature, or range, at which the solid turns liquid.

Data set [1] concerns the target T1, progesterone receptor (Homo sapiens, UniProt P06401).
T1 construct: determining a compound's effect on alkaline phosphatase activity in T47D cells; endogenous in cells; host or cells: T47D cells
T1 sequence (P06401 1-933): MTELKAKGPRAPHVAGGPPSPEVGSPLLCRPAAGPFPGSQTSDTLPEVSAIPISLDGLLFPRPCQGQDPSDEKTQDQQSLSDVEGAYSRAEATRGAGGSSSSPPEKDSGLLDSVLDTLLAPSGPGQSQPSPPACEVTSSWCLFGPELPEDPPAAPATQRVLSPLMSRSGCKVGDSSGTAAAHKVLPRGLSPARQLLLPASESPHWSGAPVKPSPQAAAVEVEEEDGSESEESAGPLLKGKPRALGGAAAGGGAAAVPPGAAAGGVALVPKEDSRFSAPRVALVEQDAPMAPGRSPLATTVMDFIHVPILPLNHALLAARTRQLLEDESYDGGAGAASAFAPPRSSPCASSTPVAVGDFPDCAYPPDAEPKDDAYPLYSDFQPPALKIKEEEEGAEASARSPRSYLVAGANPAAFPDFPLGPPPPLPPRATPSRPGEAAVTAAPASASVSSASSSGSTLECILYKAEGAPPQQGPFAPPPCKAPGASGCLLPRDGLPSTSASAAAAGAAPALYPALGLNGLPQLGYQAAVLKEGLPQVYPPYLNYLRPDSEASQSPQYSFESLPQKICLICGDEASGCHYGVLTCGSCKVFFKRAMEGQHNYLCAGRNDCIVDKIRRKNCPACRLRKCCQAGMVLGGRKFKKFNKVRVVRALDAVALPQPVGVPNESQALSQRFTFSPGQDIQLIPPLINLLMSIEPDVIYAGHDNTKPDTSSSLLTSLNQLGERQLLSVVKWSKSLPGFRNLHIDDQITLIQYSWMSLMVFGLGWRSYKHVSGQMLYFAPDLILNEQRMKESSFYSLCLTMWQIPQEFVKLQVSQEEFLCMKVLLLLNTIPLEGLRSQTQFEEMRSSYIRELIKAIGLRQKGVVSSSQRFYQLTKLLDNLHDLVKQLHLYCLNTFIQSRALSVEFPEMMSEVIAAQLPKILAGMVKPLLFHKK
Nature of the data set: Effects of progestins and antiprogestins on alkaline phosphatase activity in T47D cells. Format: cell-based. Conditions: antagonist mode in the presence of 1 nM progesterone, 24 h, read-out: T47D Alkaline Phosphatase Activity IC50 (nM) or % inhibition. As for the experimental part: (1) Effects of Progestins and Antiprogestins on Alkaline Phosphatase Activity in T47D Cells
PURPOSE: To identify progestins or antiprogestins by determining a compound's effect on alkaline phosphatase activity in T47D cells.
Culture Medium: • DMEM:F12 (1:1) (GIBCO, BRL) supplemented with 5% (v/v) charcoal stripped fetal bovine serum (not heat-inactivated), 100 U/mL penicillin, 100 μg/mL streptomycin, and 2 mM the GlutaMax™ reagent (GEBCO, BRL).
Alkaline phosphatase assay buffer: • I. 0.1M Tris-HCl, pH 9.8, containing 0.2% the Triton® X-100 reagent • II. 0.1M Tris-HCl, pH 9.8, containing 4 mM p-nitrophenyl phosphate (Sigma). B. Cell Culture and Treatment:
Frozen T47D cells were thawed in a 37° C. water bath and diluted to 280,000 cells/mL in culture medium. To each well in a 96-well plate (Falcon, Becton Dickinson Labware), 180 μL of diluted cell suspension was added.
Twenty μL of reference or test compounds diluted in the culture medium was then added to each well. […]
For reference and test compounds, a dose response curve was generated for dose (X-axis) vs. the rate of enzyme reaction (slope) (Y-axis). […] EC50 or IC50 values were calculated from the retransformed values. […]
Progesterone and trimegestone were reference progestins and RU486 was the reference antiprogestin. All reference compounds were run in full dose response curves and the EC50 and IC50 values were calculated.

`O=C1OCCCN1c1nc(-c2ccc(Br)cc2)cs1` [Example 3, 3-[4-(4-Bromophenyl)-1,3-thiazol-2-yl]-1,3-oxazinan-2-one] had a melting point of 225 to 227 °C. Further, the half-inhibitory concentration (IC50) in data set [1] came to 238 nM.

As for `C[C@@H]1COC(=O)N1c1nc(-c2ccc(Br)cc2)cs1` [Example 1, (4R)-3-[4-(4-Bromophenyl)-1,3-thiazol-2-yl]-4-methyl-1,3-oxazolidin-2-one], the melting point is 197 to 199 °C.

Compound `CCC[C@@H]1COC(=O)N1c1nc(-c2ccc(Br)cc2)cs1` [Example 2, (4R)-3-[4-(4-Bromophenyl)-1,3-thiazol-2-yl]-4-propyl-1,3-oxazolidin-2-one] yielded a melting point of 114 to 116 °C.

The compound `CC1(C)COC(=O)N(c2nc(-c3ccc(Br)cc3)cs2)C1` [Example 4, 3-[4-(4-Bromophenyl)-1,3-thiazol-2-yl]-5,5-dimethyl-1,3-oxazinan-2-one] showed a melting point of 169 to 171 °C. For the same compound, the IC50 in data set [1] amounted to 1370 nM.
